“Also recorded” adds a separate entry of the source.
Assays:
Heliothis zea = experiment: Sterol utilization and metabolism by Heliothis zea reared on artificial diet with sterol supplement; conditions: for Instar reached by day 20 / Growth response: sterol 200 ppm in diet; for Growth response: 20-day larvae, relative to growth on cholesterol normalized to 100%; for Utilization by H. zea / support of larval growth and development (words): test sterol as sole added dietary sterol
Experimental: Heliothis zea (corn earworm) was reared on an artificial diet treated with different sterol supplements to study the relation between sterol structure and utilization in insects. H. zea eggs were used to establish a disease-free stock colony.
The stock insects were reared using sterile procedures on a pinto bean-based diet. Moths were fed 10% sucrose. Cultures were maintained at 27±1° C., at 40±10% relative humidity on a 14:10 light-dark photoperiod and an artificial diet was used to rear the insects on different sterol supplements. The experimental diet contained agar, which is known to contain trace contamination of cholesterol, otherwise the experimental diet was sterol-free.
Sterols were solubilized in acetone. Aliquots of the solutions were added to the sterol-free diet in a mortar, the material mixed thoroughly with the diet, and the organic solvent allowed to evaporate. Sterols were supplied to the medium at 200 ppm (equivalent to 1 mg of sterol per experimental vessel containing one insect).
By day 20, H. zea larva are in the final stage of larval development (sixth instar), after which the insects may pupate. A single neonate larva was placed in an experimental culture vial and allowed to grow for 20 days. The fresh weight, length and instar stage of 20-day larva were recorded.
In some treatments, the larvae were allowed to grow for another 4 days to determine whether they could pupate properly and develop into moth forms.
These fatty alcohols may comigrate with sterols during some forms of chromatography and interfere with sterol quantitation, particularly of cholesterol. Therefore, in order to confirm the identity and amount of cholesterol in the insect an aliquot of the NSF was injected into a HPLC column and the fraction corresponding to cholesterol was examined by GC-MS.

[1] = system: (S)-adenosyl-L-methionine: Δ^24-sterol methyl transferase (SMT); experiment: Sterol specificity (substrate methylation) of SMT enzyme from 4-day corn seedlings; format: biochemical, Zea mays (corn); conditions: for % Activity, relative to cycloartenol methylation: soluble SMT; for Enzyme Activity: soluble SMT from corn seedlings, BG = background
Experimental: The sterol specificity of the microsome-bound and soluble SMT enzyme from 4-day corn seedlings was determined in order to elucidate the enzymatic basis for the plant sterols identified in Example 1.

[2] = system: (S)-adenosyl-L-methionine: Δ^24-sterol methyl transferase (SMT); experiment: Effect of substrate and transition state analog inhibitors on soluble SMT enzyme from 4-day seedlings; format: biochemical, Zea mays (corn)
[3] = Table 11, insect tissues, RP-HPLC and GC-MS
[4] = substrates marked (C1), first methyl transfer

24-Ethyl cholesta-5,24-dienol was tested, and the “Instar reached by day 20” value (Heliothis zea; Table 11) was 3 and the Growth response (Heliothis zea; Table 11) was 10%.
For 24-Methyl cholesta-5,24-dienol, the “Sterol composition (as % total sterol): cholesterol” value (Heliothis zea; [3]) was 35%, the “Sterol composition (as % total sterol): ts” value (Heliothis zea; [3]) was 65% and the “Instar reached by day 20” value (Heliothis zea; Table 11) was 3. It also gave a Growth response (Heliothis zea; Table 11) of 5%.
In the case of “24-methyl cholesta-5,23-dienol [24-Methylcholesta-5,23-dienol]”, the “Sterol composition (as % total sterol): cholesterol” value (Heliothis zea; [3]) is reported as 20%, the “Sterol composition (as % total sterol): ts” value (Heliothis zea; [3]) is reported as 80% and the “Instar reached by day 20” value (Heliothis zea; Table 11) is reported as 5. The Growth response (Heliothis zea; Table 11) was 50% and the “Utilization by H. zea / support of larval growth and development (words)” value (shortened to “Utilization by H. zea / support”) (Heliothis zea) was “non-utilizable; also recorded: #deformities. Insects in the nonutilizable category generally weighed less than 100 mg per insect and their length ranged from 2 to 15 mm, with 6 to 12 insects alive at day 20”.
With 24-methyl cholesta-5,25(27)-dienol the “Utilization by H. zea / support” value (Heliothis zea) was “non-utilizable”.
With `CC(C)=CCC[C@@H](C)[C@H]1CC[C@H]2C3=C(CC[C@]12C)[C@@]1(C)CCCCC1CC3` (stereo partly shown) [3-Desoxyzymosterol] the “% Activity, relative to cycloartenol methylation” value ([1]; (C1), first methyl transfer) was 0 (C1) %.
For `C=C(CC[C@@H](C)[C@H]1CC[C@H]2C3=C(CC[C@]12C)[C@@]1(C)CC[C@H](O)[C@@H](C)C1CC3)C(C)C` (stereo partly drawn) [4α-Methylergosta-8,24(28)-dienol], the “Enzyme Activity” value ([1]; substrates marked (C2), second methyl transfer) was 1,500 dpm/min and the “% Activity, relative to cycloartenol methylation” value ([1]; (C2), second methyl transfer) was 4 (C2) %.
With `CC(C)=CCC[C@@H](C)[C@H]1CC[C@H]2C3=C(CC[C@]12C)[C@@]1(C)CC[C@H](O)[C@@H](C)[C@@H]1CC3` [4α-Methylzymosterol] the “Enzyme Activity” value [1, 4] was 10,504 dpm/min and the “% Activity, relative to cycloartenol methylation” value ([1]; (C1), first methyl transfer) was 28 (C1) %.
`CC(C)=CCCC(C)C1CC[C@@]2(C)C3=C(CCC12C)C1(C)CCC(O)CC1CC3` (stereo partly drawn) [14α-Methylzymosterol] was tested, and the “Enzyme Activity” value [1, 4] was 3,376 dpm/min and the “% Activity, relative to cycloartenol methylation” value ([1]; (C1), first methyl transfer) was 9 (C1) %.
In the case of `C=C(CC[C@@H](C)[C@H]1CC[C@H]2[C@@H]3CC=C4CC(O)CC[C@]4(C)[C@H]3CC[C@]12C)C(C)C` (stereo partly shown) [24(28)-Methylenecholesterol, 24(28)-methylenecholesterol], the “Instar reached by day 20” value (Heliothis zea; Table 11) is reported as 6, the Growth response (Heliothis zea; Table 11) is reported as 100% and the “Sterol composition (as % total sterol): cholesterol” value (Heliothis zea; in vivo) is reported as 84%. The “Sterol composition (as % total sterol): ts” value (Heliothis zea; in vivo) was 16%, the Total sterol µg/insect (Heliothis zea; in vivo) was 59 µg/insect and the “Utilization by H. zea / support” value (Heliothis zea) was “supported larval growth to late-sixth instar”.
In the case of `CC(CCC1NC1(C)C)[C@H]1CC[C@@]2(C)C3=C(CC[C@]12C)[C@]1(C)CC[C@H](O)C(C)(C)[C@@H]1CC3` (stereo partly drawn) [24-(R,S)-25-Epiminolanosterol, 24-(R,S)-25-epiminolanosterol], the “Type of inhibition / kinetic pattern” value ([2]; soluble corn SMT) is reported as “non-competitive type kinetic pattern”.
`CC(C)=CCC[C@@H](C)[C@H]1CC[C@@]2(C)[C@@H]3CC[C@H]4C[C@@H](O)CC[C@@]45C[C@@]35CC[C@]12C` [24-Dehydropollinstanol] was tested, and the “Enzyme Activity” value [1, 4] was 8,253 dpm/min, the “% Activity, relative to cycloartenol methylation” value ([1]; (C1), first methyl transfer) was 22 (C1) % and the “Instar reached by day 20” value (Heliothis zea; Table 11) was 3. For the same compound, the Growth response (Heliothis zea; Table 11) was 5%, the “Sterol composition (as % total sterol): cholesterol” value (Heliothis zea; in vivo) was 14% and the “Sterol composition (as % total sterol): ts” value (Heliothis zea; in vivo) was 86%. For the same compound, the Total sterol µg/insect (Heliothis zea; in vivo) was 0.6 µg/insect.
With `CC(C)CCC[C@@H](C)[C@H]1CC[C@@]2(C)C3=C(CC[C@]12C)[C@@]1(C)CC[C@H](O)C(C)(C)[C@@H]1CC3` [24-Dihydrolanosterol] the “Instar reached by day 20” value (Heliothis zea; Table 11) was 3 and the Growth response (Heliothis zea; Table 11) was 5%.
For `CCC(=CC[C@@H](C)[C@H]1CC[C@H]2[C@@H]3CC=C4CC(O)CC[C@]4(C)[C@H]3CC[C@]12C)C(C)C` (stereo partly shown) [24-Ethyl cholesta-5,23-dienol], the “Sterol composition (as % total sterol): cholesterol” value (Heliothis zea; [3]) was 14%, the “Sterol composition (as % total sterol): ts” value (Heliothis zea; [3]) was 86% and the “Instar reached by day 20” value (Heliothis zea; Table 11) was 3. It also gave a Growth response (Heliothis zea; Table 11) of 20%.
With `CC(C)=CCC[C@@H](C)[C@H]1CC[C@@]2(C)[C@@H]3CC[C@H]4[C@H](C)[C@@H](O)CC[C@@]45C[C@@]35CC[C@]12C` [31-Norcycloartenol] the “Enzyme Activity” value [1, 4] was 18,757 dpm/min and the “% Activity, relative to cycloartenol methylation” value ([1]; (C1), first methyl transfer) was 50 (C1) %.
`CC(C)C(C)CCC(C)C1CCC2C3CC=C4CC(O)CCC4(C)C3CCC12C` (stereo not shown) [Campesterol, campesterol] was tested, and the “Effect on the first methyl transfer” value ([2]; soluble corn SMT) was “failed to inhibit either the first or second methylation reaction” and the “Effect on the second methyl transfer” value ([2]; soluble corn SMT) was “failed to inhibit either the first or second methylation reaction”.
In the case of `CC(C)CCC[C@@H](C)[C@H]1CC[C@H]2C3=C(CC[C@]12C)[C@@]1(C)CCC(O)CC1CC3` (stereo partly shown) [Cholest-8-enol], the “% Activity, relative to cycloartenol methylation” value ([1]; (C1), first methyl transfer) is reported as 0 (C1) %, the “Instar reached by day 20” value (Heliothis zea; Table 11) is reported as 3 and the Growth response (Heliothis zea; Table 11) is reported as 5%. For the same compound, the “Utilization by H. zea / support” value (Heliothis zea) was “inability of cholest-8-enol to support growth”.
With `C=C(C)C(CC)CCC(C)C1CCC2C3CC=C4CC(O)CCC4(C)C3CCC12C` (stereo not shown) [Clereosterol] the “Instar reached by day 20” value (Heliothis zea; Table 11) was 3, the Growth response (Heliothis zea; Table 11) was 20% and the “Sterol composition (as % total sterol): cholesterol” value (Heliothis zea; in vivo) was 20%. For the same compound, the “Sterol composition (as % total sterol): ts” value (Heliothis zea; in vivo) was 80% and the Total sterol µg/insect (Heliothis zea; in vivo) was 3 µg/insect.
`CC[C@@H](CC[C@@H](C)[C@H]1CC[C@H]2[C@@H]3CC=C4C[C@@H](O)CC[C@]4(C)[C@H]3CC[C@]12C)C(C)C` [Clionasterol] was tested, and the “Instar reached by day 20” value (Heliothis zea; Table 11) was 6, the Growth response (Heliothis zea; Table 11) was 100% and the “Utilization by H. zea / support” value (Heliothis zea) was “supported larval growth to late-sixth instar”.
With `C=C(CC[C@@H](C)[C@H]1CC[C@@]2(C)[C@@H]3CC[C@H]4[C@H](C)[C@@H](O)CC[C@@]45C[C@@]35CC[C@]12C)C(C)C` [Cycloeucalenol] the “% Activity, relative to cycloartenol methylation” value ([1]; (C2), second methyl transfer) was 0 (C2) %.
For `C=C(CC[C@@H](C)[C@H]1CC[C@H]2[C@@H]3CC=C4C[C@@H](O)CC[C@]4(C)[C@H]3CC[C@]12C)C(C)C` [Ergosta-5,24(28)-dienol], the “% Activity, relative to cycloartenol methylation” value ([1]; (C2), second methyl transfer) was 0 (C2) %.
In the case of `C=C(CC[C@@H](C)[C@H]1CC[C@H]2C3=CCC4CC(O)CC[C@]4(C)[C@H]3CC[C@]12C)C(C)C` (stereo partly shown) [Ergosta-7,24(28)-dienol], the “% Activity, relative to cycloartenol methylation” value ([1]; (C2), second methyl transfer) is reported as 0 (C2) %.
In the case of `C=C(CC[C@@H](C)[C@H]1CC[C@H]2C3=C(CC[C@]12C)[C@@]1(C)CC[C@H](O)CC1CC3)C(C)C` (stereo partly shown) [Ergosta-8,24(28)-dienol], the “% Activity, relative to cycloartenol methylation” value ([1]; (C2), second methyl transfer) is reported as 0 (C2) %.
For `C/C=C(\CC[C@@H](C)[C@H]1CC[C@H]2[C@@H]3CC=C4C[C@@H](O)CC[C@]4(C)[C@H]3CC[C@]12C)C(C)C` [Fucosterol], the “Sterol composition (as % total sterol): ts” value (Heliothis zea; [3]) was 10%, the “Instar reached by day 20” value (Heliothis zea; Table 11) was 6 and the Growth response (Heliothis zea; Table 11) was 100%. The “Utilization by H. zea / support” value (Heliothis zea) was “supported larval growth to late-sixth instar”.
For `C/C=C(/CCC(C)C1CCC2C3CC=C4CC(O)CCC4(C)C3CCC12C)C(C)C` (stereo not shown) [Isofucosterol], the “Sterol composition (as % total sterol): ts” value (Heliothis zea; [3]) was 8%, the “Instar reached by day 20” value (Heliothis zea; Table 11) was 6 and the Growth response (Heliothis zea; Table 11) was 100%. The “Utilization by H. zea / support” value (Heliothis zea) was “supported larval growth to late-sixth instar”.
`CC(C)=CCC[C@@H](C)[C@H]1CC[C@@]2(C)C3=C(CC[C@]12C)[C@@]1(C)CC[C@H](O)C(C)(C)[C@@H]1CC3` [Lanosterol] was tested, and the “Enzyme Activity” value [1, 4] was 24,384 dpm/min, the “% Activity, relative to cycloartenol methylation” value ([1]; (C1), first methyl transfer) was 65 (C1) % and the “Instar reached by day 20” value (Heliothis zea; Table 11) was 3. The Growth response (Heliothis zea; Table 11) was 5% and the “Utilization by H. zea / support” value (Heliothis zea) was “could not be met satisfactorily”.
In the case of `C=C(CC[C@@H](C)[C@H]1CC[C@@]2(C)C3=C(CC[C@]12C)[C@@]1(C)CC[C@H](O)[C@@H](C)[C@@H]1CC3)C(C)C` [Obtusifoliol], the “% Activity, relative to cycloartenol methylation” value ([1]; (C2), second methyl transfer) is reported as 0 (C2) %.
`CC(C)=CCC[C@@H](C)[C@H]1CC[C@@]2(C)[C@@H]3CC[C@H]4C(C)(C)[C@@H](O)CC[C@]4(C)C3=CC[C@]12C` [Parkeol] was tested, and the “Enzyme Activity” value [1, 4] was 6,002 dpm/min and the “% Activity, relative to cycloartenol methylation” value ([1]; (C1), first methyl transfer) was 16 (C1) %.
`CCC(/C=C/C(C)C1CCC2C3CC=C4CC(O)CCC4(C)C3CCC12C)C(C)C` (stereo not shown) [Stigmasterol, stigmasterol] was tested, and the “Sterol composition (as % total sterol): ts” value (Heliothis zea; [3]) was 15%, the “Instar reached by day 20” value (Heliothis zea; Table 11) was 6 and the Growth response (Heliothis zea; Table 11) was 100%. For the same compound, the “Utilization by H. zea / support” value (Heliothis zea) was “supported larval growth to late-sixth instar”.
For `CC=C(CCC(C)C1CCC2C3=CCC4C(C)C(O)CCC4(C)C3CCC21C)C(C)C` (stereo not shown) [Z-24(28)-Ethylidene lophenol], the Ki ([2]; soluble SMT, 4-day seedlings, NA = no inhibition, read-out: Ki relative to the second methyl transfer) was 75 µM and the “Effect on the first methyl transfer” value ([2]; soluble corn SMT) was “not affecting the first methyl transfer”.
(S)-adenosyl-L-methionine [coenzyme] was tested, and the Km ([1]; same for the first and second methylation reactions, read-out: Km for the coenzyme) was 5 µM.
